The subject of one data set is Huh7.5 cells. The data set is described as follows: Cytotoxicity assay (MTT) in Huh7.5 cells. Format: cell-based, Human. On the procedure: (§1) All of the synthesized compounds were examined for their anti-HCV activity and cytotoxicity in Huh 7.5 cells using specific real-time RT-PCR assay, as described in our previous publication. Anti-HCV activity was evaluated by measuring both EC50 (for anti-HCV activity) and CC50 (for cytotoxicity) values. As a key indication, the selectivity index (SI) was calculated as a ratio of CC50 to EC50. Anti-HCV activity of the study compound was estimated by combining its EC50 value with SI.
Huh7.5 cells were seeded into 96-well plates (Costar) at a density of 3×10^4 cells/cm^2. After 24 h incubation. Fresh culture medium containing test compounds at various concentrations were added. 72 h later, Cytotoxicity was evaluated with 3-(4,5-Dimethylthiazol-2-yl)-2,5-diphenyltetrazolium bromide (MTT).

Data set [1] relates to HCV (recombination virus strain J6/JFH/JC). Kind of data set: Anti-HCV activity in Huh7.5 cells, intracellular HCV RNA by real-time RT-PCR. The conditions noted are these: for EC50: anti-HCV activity, 72 h, HCV RNA by RT-PCR. Format: cell-based, hepatitis C virus (HCV). On the procedure:
as §1
Huh7.5 cells were seeded into 96-well or 6-well plates (Costar) at a density of 3×10^4 cells/cm^2. After 24 h incubation, the cells were infected with HCV viral stock (recombination virus strain J6/JFH/JC, 45 IU/cell) and simultaneously treated with the test compounds at various concentrations.
Concentrations or solvent as the control. The culture medium was removed after 72 h incubation, the intracellular total RNA (in 96-well plates) was extracted with RNeasy Mini Kit (Qiagen), and total intracellular proteins (in 6-well plates) were extracted with Cyto-Buster Protein Extraction Reagent added with 1 mM protease inhibitor cocktail. The intracellular HCV RNA was quantified with a real time one-step reverse-transcription polymerase chain reaction (RT-PCR). HCV core protein was detected with western blot (see below).
In general terms: In qPCR the cycle at which signal appears reflects the starting amount.

As a reminder, the CC50 is the concentration at which the toxic effect on the cells reaches its halfway point. As usually defined, the EC50 is the concentration that produces a half-maximal response.

In the data set with Huh7.5 cells, `Cc1cccc(CN2CC3CCCN4CCCC(C2CCCC(=O)O)C34)c1` (centres unmarked) [Compound 12b, 12-N-3-Methylbenzyl sophoridinic acid] registered a CC50 of 1320 µM. In data set [1], the “SI (selectivity index, CC50/EC50)” value came out at 2.9 and the EC50 was found to be 453 µM.
Taken in the same sequence, the figures for `O=C(O)CCCC1C2CCCN3CCCC(CN1Cc1ccc(F)cc1)C23` (centres unmarked) [Compound 7f, 12-N-4-Fluorobenzyl matrinic acid] were over 2670 µM, over 15.1 and 176 µM.
For the compound `O=C(O)CCCC1C2CCCN3CCCC(CN1Cc1cccc(Cl)c1)C23` (centres unmarked) [Compound 7h, 12-N-3-Chlorobenzyl matrinic acid], in the data set with Huh7.5 cells, the CC50 is over 2560 µM. In addition, in data set [1], the “SI (selectivity index, CC50/EC50)” value is recorded as over 28.9; the “anti-HCV activity (in words)” value is “slight improvement in comparison to the lead”; the EC50 worked out at 88.5 µM.
The compound `O=C(O)CCCC1C2CCCN3CCCC(CN1Cc1ccc(OC(F)(F)F)cc1)C23` (centres unmarked) [Compound 12f, 12-N-4-Trifluoromethoxybenzyl sophoridinic acid] came in with a CC50 in the data set with Huh7.5 cells of 141 µM. In data set [1], the “SI (selectivity index, CC50/EC50)” value is reported as 12.7 and the EC50 was determined as 11.1 µM.
In the case of `Cc1cccc(CN2C[C@@H]3CCCN4CCC[C@@H]([C@H]34)[C@H]2CCCC(=O)O)c1` [Compound 7b, 12-N-3-Methylbenzyl matrinic acid], it took 2390 µM to reach half-maximal cytotoxicity in the data set on Huh7.5 cells (CC50). Also, in data set [1], the “SI (selectivity index, CC50/EC50)” value was determined as 9.0 and the EC50 turned out to be 266 µM.
For the compound `Cc1ccccc1CN1CC2CCCN3CCCC(C1CCCC(=O)O)C23` (centres unmarked) [Compound 7a, 12-N-2-Methylbenzyl matrinic acid], the CC50 in the data set with Huh7.5 cells was 1130 µM. In addition, in data set [1], the “SI (selectivity index, CC50/EC50)” value is reported as 5.6 and the EC50 was 203 µM.
The matching figures for `Cc1ccc(CN2CC3CCCN4CCCC(C2CCCC(=O)O)C34)cc1` (centres unmarked) [Compound 12c, 12-N-4-Methylbenzyl sophoridinic acid]: 2200 µM, 4.4 and 503 µM.
On to `O=C(O)CCCC1C2CCCN3CCCC(CN1Cc1ccc(Cl)c(Cl)c1)C23` (centres unmarked) [Compound 7j, 12-N-3,4-Dichlorobenzyl matrinic acid], for which the midpoint of cytotoxicity in the data set on Huh7.5 cells, the CC50, lay at 1010 µM. Besides, in data set [1], the “SI (selectivity index, CC50/EC50)” value came out at 3.7 and the EC50 came to 268 µM.
The matching figures for `O=C(O)CCCC1C2CCCN3CCCC(CN1Cc1ccccc1F)C23` (centres unmarked) [Compound 12d, 12-N-2-Flurobenzyl sophoridinic acid]: 1550 µM, under 1.7 and over 890 µM.
Taken in the same sequence, the figures for `O=C(O)CCCC1C2CCCN3CCCC(CN1Cc1ccccc1Cl)C23` (centres unmarked) [Compound 7g, 12-N-2-Chlorobenzyl matrinic acid] were 1290 µM, 7.3 and 176 µM.
The compound `COc1ccc(CN2CC3CCCN4CCCC(C2CCCC(=O)O)C34)cc1` (centres unmarked) [Compound 12a, 12-N-4-Methoxybenzyl sophoridinic acid] yielded a CC50 in the data set with Huh7.5 cells of 1060 µM. Besides, in data set [1], the “SI (selectivity index, CC50/EC50)” value is listed as 18.5 and the EC50 turned out to be 57.5 µM.
Turning to `O=C(O)CCCC1C2CCCN3CCCC(CN1Cc1ccc(F)cc1)C23` (centres unmarked) [Compound 12e, 12-N-4-Flurobenzyl sophoridinic acid], in the data set on Huh7.5 cells, the CC50 is 1120 µM. In addition, in data set [1], the “SI (selectivity index, CC50/EC50)” value amounted to 10.4 and the EC50 is 108 µM.
Regarding `O=C(O)CCC[C@@H]1[C@H]2CCCN3CCC[C@@H](CN1Cc1ccc(OC(F)(F)F)cc1)[C@@H]23` [Compound 7n, 12-N-4-Trifluoromethoxybenzyl matrinic acid], it took 1380 µM to reach half-maximal cytotoxicity in the data set on Huh7.5 cells (CC50). Moreover, in data set [1], the “SI (selectivity index, CC50/EC50)” value stood at 15.5 and the EC50 was 88.5 µM.
Taken in the same sequence, the figures for `O=C(O)CCCC1C2CCCN3CCCC(CN1Cc1ccc(Cl)cc1Cl)C23` (centres unmarked) [Compound 7k, 12-N-2,4-Dichlorobenzyl matrinic acid] were 578 µM, 1.3 and 460 µM.
In the data set with Huh7.5 cells, `O=C(O)CCCC1C2CCCN3CCCC(CN1Cc1cccc(F)c1)C23` (centres unmarked) [Compound 7e, 12-N-3-Fluorobenzyl matrinic acid] registered a CC50 of 1410 µM. Besides, in data set [1], the “SI (selectivity index, CC50/EC50)” value was 8.4 and the EC50 was 168 µM.
Taken in the same sequence, the figures for `O=C(O)CCCC1C2CCCN3CCCC(CN1Cc1ccc(Br)cc1)C23` (centres unmarked) [Compound 7l, 12-N-4-Bromobenzyl matrinic acid] were 1230 µM, 10.3 and 119 µM.
The matching figures for `O=C(O)CCCC1C2CCCN3CCCC(CN1Cc1ccc(Cl)cc1)C23` (centres unmarked) [Compound 7i, 12-N-4-Chlorobenzyl matrinic acid]: 2500 µM, 18.4 and 136 µM.
As for `O=C(O)CCCC1C2CCCN3CCCC(CN1Cc1cccc4ccccc14)C23` (centres unmarked) [Compound 7o, 12-N-1-Naphthylmethylenyl matrinic acid], the midpoint of cytotoxicity with Huh7.5 cells, the CC50, lay at 1300 µM. Besides, in data set [1], the “SI (selectivity index, CC50/EC50)” value is given as under 1.6; the “anti-HCV activity (in words)” value was “lost the activity completely”; the EC50 was over 821 µM.
With `O=C(O)CCC[C@@H]1[C@H]2CCCN3CCC[C@@H](CN1Cc1ccccc1F)[C@@H]23` [Compound 7d, 12-N-2-Fluorobenzyl matrinic acid], the midpoint of cytotoxicity with Huh7.5 cells, the CC50, lay at 1660 µM. In data set [1], the “SI (selectivity index, CC50/EC50)” value was determined as 19.0 and the EC50 was 87.4 µM.

Source of the values: PMC3597726, “N-Substituted Benzyl Matrinic Acid Derivatives Inhibit Hepatitis C Virus (HCV) Replication through Down-Regulating Host Heat-Stress Cognate 70 (Hsc70) Expression” (PLoS ONE, 2013).
